# Assay results taken from article PMC7794549, “A capsaicinoid-based soft drug, AG1529, for attenuating TRPV1-mediated histaminergic and inflammatory sensory neuron excitability” (Scientific Reports, 2021).
# Experiments:
# Assay type in all cases: cell-based
# hTRPV1 = target: T1, hTRPV1 (Homo sapiens, UniProt Q8NER1); experiment: whole-cell patch-clamp, capsaicin-evoked currents in HEK293 cells expressing hTRPV1
# T1 construct: gene TRPV1
# hTRPA1 [1] = target: T2, hTRPA1 (Homo sapiens, UniProt O75762); experiment: whole-cell patch-clamp, AITC-evoked currents in HEK293 cells; % inhibition at […]
# T2 construct: gene TRPA1
# rTRPV1 = target: T3, rTRPV1 (Rattus norvegicus, UniProt O35433); experiment: Ca2+ microfluorography
# T3 construct: gene Trpv1
# hTRPM8 = target: T4, hTRPM8 (Homo sapiens, UniProt Q7Z2W7); experiment: whole-cell patch-clamp, menthol-evoked currents in HEK293 cells; % block at […]
# T4 construct: gene TRPM8
# hTRPA1 [2] = target: T2, hTRPA1; experiment: whole-cell patch-clamp, AITC-evoked currents in HEK293 cells, […]
# T2 sequence (O75762 whole entry): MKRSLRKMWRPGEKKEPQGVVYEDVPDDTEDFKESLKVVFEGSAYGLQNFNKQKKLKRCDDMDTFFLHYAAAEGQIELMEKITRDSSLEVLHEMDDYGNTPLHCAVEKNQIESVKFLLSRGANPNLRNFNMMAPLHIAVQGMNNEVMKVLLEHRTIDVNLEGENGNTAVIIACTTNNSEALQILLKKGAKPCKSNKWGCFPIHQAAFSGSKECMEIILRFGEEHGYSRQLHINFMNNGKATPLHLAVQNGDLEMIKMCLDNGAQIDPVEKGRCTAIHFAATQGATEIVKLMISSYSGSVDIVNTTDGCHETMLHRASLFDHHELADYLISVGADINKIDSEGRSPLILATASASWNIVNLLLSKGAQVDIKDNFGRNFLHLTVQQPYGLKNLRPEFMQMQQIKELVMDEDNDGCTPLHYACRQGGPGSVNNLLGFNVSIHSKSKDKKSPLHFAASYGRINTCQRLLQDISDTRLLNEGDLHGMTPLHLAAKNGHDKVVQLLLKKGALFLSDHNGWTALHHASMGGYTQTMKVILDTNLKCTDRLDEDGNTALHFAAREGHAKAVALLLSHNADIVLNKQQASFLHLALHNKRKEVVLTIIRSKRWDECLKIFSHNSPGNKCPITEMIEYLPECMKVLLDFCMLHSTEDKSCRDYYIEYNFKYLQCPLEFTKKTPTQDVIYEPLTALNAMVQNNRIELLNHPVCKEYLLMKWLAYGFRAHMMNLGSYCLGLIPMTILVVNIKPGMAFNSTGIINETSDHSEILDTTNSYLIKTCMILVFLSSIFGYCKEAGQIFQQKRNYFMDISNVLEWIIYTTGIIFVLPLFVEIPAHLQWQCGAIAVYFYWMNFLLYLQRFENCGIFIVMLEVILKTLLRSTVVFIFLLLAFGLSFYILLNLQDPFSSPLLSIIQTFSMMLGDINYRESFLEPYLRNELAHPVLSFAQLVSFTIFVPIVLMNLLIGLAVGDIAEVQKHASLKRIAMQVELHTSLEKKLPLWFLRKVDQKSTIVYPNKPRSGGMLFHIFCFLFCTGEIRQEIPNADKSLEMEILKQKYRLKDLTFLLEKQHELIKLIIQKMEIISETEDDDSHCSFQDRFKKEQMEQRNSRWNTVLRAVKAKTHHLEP
# T1 sequence (Q8NER1 whole entry): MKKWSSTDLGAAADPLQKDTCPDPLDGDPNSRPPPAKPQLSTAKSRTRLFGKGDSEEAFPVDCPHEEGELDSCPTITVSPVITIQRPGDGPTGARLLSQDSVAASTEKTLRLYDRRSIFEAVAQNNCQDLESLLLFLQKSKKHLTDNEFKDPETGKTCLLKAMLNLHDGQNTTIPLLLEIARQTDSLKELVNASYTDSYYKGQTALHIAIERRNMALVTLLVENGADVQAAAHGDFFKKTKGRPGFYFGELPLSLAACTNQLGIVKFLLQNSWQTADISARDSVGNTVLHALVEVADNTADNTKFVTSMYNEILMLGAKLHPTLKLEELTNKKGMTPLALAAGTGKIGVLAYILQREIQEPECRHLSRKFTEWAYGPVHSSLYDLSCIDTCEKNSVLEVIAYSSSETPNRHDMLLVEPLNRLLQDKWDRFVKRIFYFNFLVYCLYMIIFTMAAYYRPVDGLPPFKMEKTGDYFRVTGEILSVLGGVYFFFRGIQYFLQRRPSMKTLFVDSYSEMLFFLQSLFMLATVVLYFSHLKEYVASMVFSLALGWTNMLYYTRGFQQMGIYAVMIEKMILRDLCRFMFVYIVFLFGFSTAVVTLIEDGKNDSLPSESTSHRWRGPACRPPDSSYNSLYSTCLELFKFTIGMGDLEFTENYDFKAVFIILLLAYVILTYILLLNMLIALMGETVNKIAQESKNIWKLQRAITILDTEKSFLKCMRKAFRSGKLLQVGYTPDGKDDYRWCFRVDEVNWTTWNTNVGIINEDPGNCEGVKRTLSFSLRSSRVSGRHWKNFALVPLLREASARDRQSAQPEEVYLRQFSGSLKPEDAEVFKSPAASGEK
# T3 sequence (O35433 whole entry): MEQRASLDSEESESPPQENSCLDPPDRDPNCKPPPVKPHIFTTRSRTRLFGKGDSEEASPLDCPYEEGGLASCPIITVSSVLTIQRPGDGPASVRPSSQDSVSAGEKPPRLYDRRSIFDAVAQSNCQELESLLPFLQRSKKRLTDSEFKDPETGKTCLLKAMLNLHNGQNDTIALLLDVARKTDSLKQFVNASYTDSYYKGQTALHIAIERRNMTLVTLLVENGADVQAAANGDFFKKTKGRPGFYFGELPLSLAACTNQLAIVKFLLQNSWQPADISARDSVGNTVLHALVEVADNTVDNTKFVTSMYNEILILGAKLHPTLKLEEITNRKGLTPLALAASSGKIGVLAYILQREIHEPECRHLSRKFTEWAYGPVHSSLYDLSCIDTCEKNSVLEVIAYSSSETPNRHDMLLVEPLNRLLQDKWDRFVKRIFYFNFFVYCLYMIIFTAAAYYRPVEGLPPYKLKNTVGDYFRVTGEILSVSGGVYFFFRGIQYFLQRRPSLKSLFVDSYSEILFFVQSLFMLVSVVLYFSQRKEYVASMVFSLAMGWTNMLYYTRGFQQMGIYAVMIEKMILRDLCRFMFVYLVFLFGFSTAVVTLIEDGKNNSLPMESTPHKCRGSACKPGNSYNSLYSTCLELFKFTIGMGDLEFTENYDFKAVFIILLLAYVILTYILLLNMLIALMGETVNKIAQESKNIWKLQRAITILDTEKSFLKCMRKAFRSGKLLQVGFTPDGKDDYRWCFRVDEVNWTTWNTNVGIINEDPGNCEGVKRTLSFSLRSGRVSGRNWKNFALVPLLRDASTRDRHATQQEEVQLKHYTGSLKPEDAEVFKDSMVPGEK
# T4 sequence (Q7Z2W7 whole entry): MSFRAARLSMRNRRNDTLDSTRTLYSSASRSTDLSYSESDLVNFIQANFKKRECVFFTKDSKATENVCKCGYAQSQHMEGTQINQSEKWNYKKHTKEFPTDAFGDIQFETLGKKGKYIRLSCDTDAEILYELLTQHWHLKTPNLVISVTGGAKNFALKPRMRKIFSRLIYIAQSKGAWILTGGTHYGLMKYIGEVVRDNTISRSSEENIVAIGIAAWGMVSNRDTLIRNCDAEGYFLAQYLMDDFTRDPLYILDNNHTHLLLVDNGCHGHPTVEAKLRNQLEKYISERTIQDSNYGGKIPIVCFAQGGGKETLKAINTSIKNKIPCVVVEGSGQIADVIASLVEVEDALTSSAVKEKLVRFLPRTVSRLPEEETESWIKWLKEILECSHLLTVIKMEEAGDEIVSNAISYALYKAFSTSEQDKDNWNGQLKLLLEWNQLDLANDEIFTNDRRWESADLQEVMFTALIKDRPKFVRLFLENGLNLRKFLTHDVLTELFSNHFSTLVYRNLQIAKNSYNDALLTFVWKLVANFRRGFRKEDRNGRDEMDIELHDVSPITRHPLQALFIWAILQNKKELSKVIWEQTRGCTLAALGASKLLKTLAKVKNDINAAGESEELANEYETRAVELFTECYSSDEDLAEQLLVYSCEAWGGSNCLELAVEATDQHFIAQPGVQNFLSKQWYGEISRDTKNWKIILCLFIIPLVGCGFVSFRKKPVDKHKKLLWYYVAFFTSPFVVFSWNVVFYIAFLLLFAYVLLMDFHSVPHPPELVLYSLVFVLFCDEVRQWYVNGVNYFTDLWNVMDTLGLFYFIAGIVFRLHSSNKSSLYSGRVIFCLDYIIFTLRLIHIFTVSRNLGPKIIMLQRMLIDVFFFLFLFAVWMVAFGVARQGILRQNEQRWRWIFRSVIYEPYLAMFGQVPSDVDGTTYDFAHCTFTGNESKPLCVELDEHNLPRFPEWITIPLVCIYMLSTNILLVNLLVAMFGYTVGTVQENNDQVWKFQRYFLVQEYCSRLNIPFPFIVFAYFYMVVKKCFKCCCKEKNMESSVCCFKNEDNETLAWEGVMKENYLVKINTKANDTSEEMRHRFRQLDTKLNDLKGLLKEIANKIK
compound,measurement,setting,value
"CCCCCCCCCCCC(=O)OCC(=O)NCc1cc(OC)c(O)cc1I [AG1529, 2-((4-hydroxy-2-iodo-5-methoxybenzyl)amino)-2-oxoethyl dodecanoate]",IC50,hTRPV1,900 ± 500 nM
same,inhibition at 10 µM,hTRPA1 [1],~40%
same,IC50,rTRPV1,900 ± 200 nM
same,%,hTRPM8,~ 40%
"CC(C)c1ccc(NC(=O)Cn2cnc3c2c(=O)n(C)c(=O)n3C)cc1 [HC030031, 1,2,3,6-Tetrahydro-1,3-dimethyl-N-[4-(1-methylethyl)phenyl]-2,6-dioxo-7H-purine-7-acetamide]","whole-cell patch-clamp, AITC-evoked currents in HEK293 cells, 5 μM",hTRPA1 [2],"a reference TRPA1 antagonist, completely abrogated AITC-evoked ionic currents"
